# Laboratory results: ChEMBL document CHEMBL4396916, “Novel potent substituted 4-amino-2-thiopyrimidines as dual VEGFR-2 and BRAF kinase inhibitors” (Eur J Med Chem, 2019)
# How the values were obtained:
# [1] = molecular target: Vascular endothelial growth factor receptor 2 (Homo sapiens, UniProt P35968); assay: Inhibition of human N-terminal GST tagged VEGFR-2 expressed in baculovirus infected Sf9 cells using poly (Glu,Tyr) 4:1 as substrate in presence of ATP by Kinase-Glo luminescence assay
# [2] = molecular target: Serine/threonine-protein kinase B-raf (Homo sapiens, UniProt P15056); assay: Inhibition of human wild type BRAF by Kinase-Glo luminescence assay
# Chain of Serine/threonine-protein kinase B-raf (P15056 whole entry): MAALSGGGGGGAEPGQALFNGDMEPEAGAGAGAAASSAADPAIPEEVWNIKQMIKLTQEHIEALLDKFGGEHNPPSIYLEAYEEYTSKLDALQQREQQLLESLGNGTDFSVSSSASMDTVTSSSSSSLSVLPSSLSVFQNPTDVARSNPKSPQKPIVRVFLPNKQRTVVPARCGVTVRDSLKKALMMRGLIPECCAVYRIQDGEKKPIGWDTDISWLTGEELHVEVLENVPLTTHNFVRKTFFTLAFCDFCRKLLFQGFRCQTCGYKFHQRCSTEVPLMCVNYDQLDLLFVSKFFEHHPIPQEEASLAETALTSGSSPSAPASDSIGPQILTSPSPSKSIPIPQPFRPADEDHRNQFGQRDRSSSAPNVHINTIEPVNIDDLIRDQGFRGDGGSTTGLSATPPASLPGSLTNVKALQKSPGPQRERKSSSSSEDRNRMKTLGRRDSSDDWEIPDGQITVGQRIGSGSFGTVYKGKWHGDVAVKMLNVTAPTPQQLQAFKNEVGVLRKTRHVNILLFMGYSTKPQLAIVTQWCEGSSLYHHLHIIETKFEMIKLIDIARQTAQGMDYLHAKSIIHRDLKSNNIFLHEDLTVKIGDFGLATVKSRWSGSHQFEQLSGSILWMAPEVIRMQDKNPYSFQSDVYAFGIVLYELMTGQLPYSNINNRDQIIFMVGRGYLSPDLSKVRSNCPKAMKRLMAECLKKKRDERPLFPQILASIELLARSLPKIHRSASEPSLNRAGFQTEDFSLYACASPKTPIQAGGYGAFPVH
# CCRF-CEM = assay: Growth inhibition of human CCRF-CEM cells at 10 uM incubated for 48 hrs by sulforhodamine B assay relative to control; format: functional; details: read-out: GI
# K562 = assay: Growth inhibition of human K562 cells at 10 uM incubated for 48 hrs by sulforhodamine B assay relative to control; format: functional; details: K562, 48 h, read-out: GI
# RPMI-8226 = assay: Growth inhibition of human RPMI8226 cells at 10 uM incubated for 48 hrs by sulforhodamine B assay relative to control; format: functional; details: RPMI-8226, 48 h, read-out: GI
# SR = assay: Growth inhibition of human SR cells at 10 uM incubated for 48 hrs by sulforhodamine B assay relative to control; format: functional; details: read-out: GI
# A549 = assay: Growth inhibition of human A549/ATCC cells at 10 uM incubated for 48 hrs by sulforhodamine B assay relative to control; format: functional; details: A549, 48 h, read-out: GI
# HOP-62 = assay: Growth inhibition of human HOP62 cells at 10 uM incubated for 48 hrs by sulforhodamine B assay relative to control; format: functional; details: HOP-62, 48 h, read-out: GI
# HOP-92 = assay: Growth inhibition of human HOP92 cells at 10 uM incubated for 48 hrs by sulforhodamine B assay relative to control; format: functional; details: HOP-92, 48 h, read-out: GI
# NCI-H226 = assay: Growth inhibition of human NCI-H226 cells at 10 uM incubated for 48 hrs by sulforhodamine B assay relative to control; format: functional; details: NCI-H226, 48 h, read-out: GI
# NCI-H23 = assay: Growth inhibition of human NCI-H23 cells at 10 uM incubated for 48 hrs by sulforhodamine B assay relative to control; format: functional; details: NCI-H23, 48 h, read-out: GI
# NCI-H522 = assay: Growth inhibition of human NCI-H522 cells at 10 uM incubated for 48 hrs by sulforhodamine B assay relative to control; format: functional; details: NCI-H522, 48 h, read-out: GI
# COLO 205 = assay: Growth inhibition of human COLO205 cells at 10 uM incubated for 48 hrs by sulforhodamine B assay relative to control; format: functional; details: COLO 205, 48 h, read-out: GI
# HCT-116 = assay: Growth inhibition of human HCT116 cells at 10 uM incubated for 48 hrs by sulforhodamine B assay relative to control; format: functional; details: HCT-116, 48 h, read-out: GI
# HCT-15 = assay: Growth inhibition of human HCT15 cells at 10 uM incubated for 48 hrs by sulforhodamine B assay relative to control; format: functional; details: HCT-15, 48 h, read-out: GI
# HT-29 = assay: Growth inhibition of human HT-29 cells at 10 uM incubated for 48 hrs by sulforhodamine B assay relative to control; format: functional; details: HT-29, 48 h, read-out: GI
# KM12 = assay: Growth inhibition of human KM12 cells at 10 uM incubated for 48 hrs by sulforhodamine B assay relative to control; format: functional; details: KM12, 48 h, read-out: GI
# SW-620 = assay: Growth inhibition of human SW620 cells at 10 uM incubated for 48 hrs by sulforhodamine B assay relative to control; format: functional; details: SW-620, 48 h, read-out: GI
# SF-539 = assay: Growth inhibition of human SF539 cells at 10 uM incubated for 48 hrs by sulforhodamine B assay relative to control; format: functional; details: SF-539, 48 h, read-out: GI
# Malme-3M = assay: Growth inhibition of human MALME-3M cells at 10 uM incubated for 48 hrs by sulforhodamine B assay relative to control; format: functional; details: read-out: GI
# UACC-62 = assay: Growth inhibition of human UACC62 cells at 10 uM incubated for 48 hrs by sulforhodamine B assay relative to control; format: functional; details: UACC-62, 48 h, read-out: GI
# IGROV-1 = assay: Growth inhibition of human IGROV1 cells at 10 uM incubated for 48 hrs by sulforhodamine B assay relative to control; format: functional; details: IGROV-1, 48 h, read-out: GI
# SK-OV-3 = assay: Growth inhibition of human SKOV3 cells at 10 uM incubated for 48 hrs by sulforhodamine B assay relative to control; format: functional; details: SK-OV-3, 48 h, read-out: GI
# A498 = assay: Growth inhibition of human A498 cells at 10 uM incubated for 48 hrs by sulforhodamine B assay relative to control; format: functional; details: A498, 48 h, read-out: GI
# ACHN = assay: Growth inhibition of human ACHN cells at 10 uM incubated for 48 hrs by sulforhodamine B assay relative to control; format: functional; details: read-out: GI
# CAKI-1 = assay: Growth inhibition of human Caki1 cells at 10 uM incubated for 48 hrs by sulforhodamine B assay relative to control; format: functional; details: CAKI-1, 48 h, read-out: GI
# SN12C = assay: Growth inhibition of human SN12C cells at 10 uM incubated for 48 hrs by sulforhodamine B assay relative to control; format: functional; details: read-out: GI
# UO-31 = assay: Growth inhibition of human UO31 cells at 10 uM incubated for 48 hrs by sulforhodamine B assay relative to control; format: functional; details: UO-31, 48 h, read-out: GI
# PC-3 = assay: Growth inhibition of human PC3 cells at 10 uM incubated for 48 hrs by sulforhodamine B assay relative to control; format: functional; details: PC-3, 48 h, read-out: GI
# DU-145 = assay: Growth inhibition of human DU145 cells at 10 uM incubated for 48 hrs by sulforhodamine B assay relative to control; format: functional; details: DU-145, 48 h, read-out: GI
# MDA-MB-231 = assay: Growth inhibition of human MDA-MB-231 cells at 10 uM incubated for 48 hrs by sulforhodamine B assay relative to control; format: functional; details: MDA-MB-231, 48 h, read-out: GI
# T47D = assay: Growth inhibition of human T47D cells at 10 uM incubated for 48 hrs by sulforhodamine B assay relative to control; format: functional; details: read-out: GI
# MDA-MB-468 = assay: Growth inhibition of human MDA-MB-468 cells at 10 uM incubated for 48 hrs by sulforhodamine B assay relative to control; format: functional; details: MDA-MB-468, 48 h, read-out: GI
# MCF7 = assay: Cytotoxicity against human MCF7 cells expressing VEGFR2 and wild type BRAF measured after 48 hrs by sulforhodamine B assay; format: functional, cell-based; details: MCF7, 48 h
# Chain of Vascular endothelial growth factor receptor 2 (P35968 whole entry): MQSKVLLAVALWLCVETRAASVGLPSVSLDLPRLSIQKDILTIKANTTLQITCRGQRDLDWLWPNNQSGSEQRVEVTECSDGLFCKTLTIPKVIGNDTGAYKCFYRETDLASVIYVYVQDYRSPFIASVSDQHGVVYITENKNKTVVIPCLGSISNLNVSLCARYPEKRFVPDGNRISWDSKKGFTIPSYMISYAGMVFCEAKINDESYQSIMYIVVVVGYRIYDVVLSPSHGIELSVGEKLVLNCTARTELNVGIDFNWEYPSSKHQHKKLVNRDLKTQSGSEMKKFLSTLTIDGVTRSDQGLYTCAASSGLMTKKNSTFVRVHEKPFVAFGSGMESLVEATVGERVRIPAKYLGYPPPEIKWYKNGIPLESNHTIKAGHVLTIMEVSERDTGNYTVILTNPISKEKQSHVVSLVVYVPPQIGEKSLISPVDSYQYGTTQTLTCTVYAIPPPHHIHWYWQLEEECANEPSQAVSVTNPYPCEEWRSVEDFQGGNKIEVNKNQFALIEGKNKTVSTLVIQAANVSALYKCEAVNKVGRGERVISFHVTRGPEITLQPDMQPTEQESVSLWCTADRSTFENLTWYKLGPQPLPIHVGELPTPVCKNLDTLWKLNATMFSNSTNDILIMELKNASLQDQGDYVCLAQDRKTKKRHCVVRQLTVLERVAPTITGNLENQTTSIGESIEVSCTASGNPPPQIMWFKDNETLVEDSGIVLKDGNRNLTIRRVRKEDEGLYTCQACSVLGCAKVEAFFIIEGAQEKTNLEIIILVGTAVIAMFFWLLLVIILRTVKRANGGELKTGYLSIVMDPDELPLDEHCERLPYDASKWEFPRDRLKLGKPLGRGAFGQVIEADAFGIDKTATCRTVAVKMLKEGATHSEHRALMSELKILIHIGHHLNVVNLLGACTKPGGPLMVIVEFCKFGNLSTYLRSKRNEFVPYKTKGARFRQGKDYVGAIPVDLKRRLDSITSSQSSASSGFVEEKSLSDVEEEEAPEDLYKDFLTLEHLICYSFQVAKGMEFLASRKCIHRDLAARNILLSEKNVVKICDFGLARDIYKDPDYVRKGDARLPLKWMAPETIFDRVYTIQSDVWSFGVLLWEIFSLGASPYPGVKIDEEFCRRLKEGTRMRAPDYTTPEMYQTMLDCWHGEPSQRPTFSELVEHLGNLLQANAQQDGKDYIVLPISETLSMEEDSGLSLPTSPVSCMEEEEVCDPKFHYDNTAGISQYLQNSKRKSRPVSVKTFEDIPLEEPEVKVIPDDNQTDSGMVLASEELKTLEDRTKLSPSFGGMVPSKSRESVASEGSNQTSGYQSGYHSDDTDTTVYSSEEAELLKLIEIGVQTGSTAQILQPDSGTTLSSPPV
smiles,measurement,setting,value
CC(=O)c1ccc(Nc2ccnc(SCC(=O)c3ccc(-c4ccccc4)cc3)n2)cc1,IC50,[1],280 nM
same,IC50,[2],1050 nM
same,inhibition of growth at 10 µM,CCRF-CEM,22%
same,inhibition of growth at 10 µM,K562,10%
same,inhibition of growth at 10 µM,RPMI-8226,26%
same,inhibition of growth at 10 µM,SR,41%
same,inhibition of growth at 10 µM,A549,20%
same,inhibition of growth at 10 µM,HOP-62,13%
same,inhibition of growth at 10 µM,HOP-92,21%
same,inhibition of growth at 10 µM,NCI-H226,11%
same,inhibition of growth at 10 µM,NCI-H23,10%
same,inhibition of growth at 10 µM,NCI-H522,22%
same,inhibition of growth at 10 µM,COLO 205,11%
same,inhibition of growth at 10 µM,HCT-116,42%
same,inhibition of growth at 10 µM,HCT-15,13%
same,inhibition of growth at 10 µM,HT-29,16%
same,inhibition of growth at 10 µM,KM12,24%
same,inhibition of growth at 10 µM,SW-620,26%
same,inhibition of growth at 10 µM,SF-539,13%
same,inhibition of growth at 10 µM,Malme-3M,14%
same,inhibition of growth at 10 µM,UACC-62,20%
same,inhibition of growth at 10 µM,IGROV-1,14%
same,inhibition of growth at 10 µM,SK-OV-3,11%
same,inhibition of growth at 10 µM,A498,55%
same,inhibition of growth at 10 µM,ACHN,26%
same,inhibition of growth at 10 µM,CAKI-1,16%
same,inhibition of growth at 10 µM,SN12C,11%
same,inhibition of growth at 10 µM,UO-31,27%
same,inhibition of growth at 10 µM,PC-3,19%
same,inhibition of growth at 10 µM,DU-145,16%
same,inhibition of growth at 10 µM,MDA-MB-231,22%
same,inhibition of growth at 10 µM,T47D,29%
same,inhibition of growth at 10 µM,MDA-MB-468,13%
same,IC50,MCF7,66100 nM
